Assays:
HT-29 = experiment: Inhibition of colony formation of […] human colon carcinoma cell lines; type: functional, cell-based
[1] = Inhibition of murine Phosphatidylinositol 3-kinase; set-up: species or system Mus musculus
[2] = Inhibition of murine Phosphatidylinositol 3-kinase (No effect); set-up: species or system Mus musculus

CCCCCCCCCCCCCCCC(=O)OCC(COP(=O)(O)OC1C(O)C(O)C(O)C(F)C1O)OC(=O)CCCCCCCCCCCCCCC (centres undefined)
IC50 (HT-29): 37 µM | IC50 [1]: 30 µM

CCCCCCCCCCCCCCCC(=O)OCC(COP(=O)(O)O[C@H]1[C@@H](O)[C@@H](O)[C@H](O)C[C@H]1O)OC(=O)CCCCCCCCCCCCCCC (some centres undefined)
IC50 [2]: Not Active | IC50 (HT-29): 35 µM

Reference: ChEMBL document CHEMBL1128572, “Synthesis and biology of 1D-3-deoxyphosphatidylinositol: a putative antimetabolite of phosphatidylinositol-3-phosphate and an inhibitor of cancer cell colony formation” (J Med Chem, 1995)
